Measured values reported in ChEMBL document CHEMBL5055633, “Amphipathic Barbiturates as Mimics of Antimicrobial Peptides and the Marine Natural Products Eusynstyelamides with Activity against Multi-resistant Clinical Isolates” (J Med Chem, 2021).

Tests used:
HepG2 = assay: Cytotoxicity against human HepG2 cells assessed as reduction in cell viability incubated for 24 hrs by colorimetric tetrazolium assay; assay type: functional, cell-based; conditions: HepG2, 24 h
[1] = Hemolytic activity in human erythrocytes incubated for 1 hr by microplate reader; assay type: functional, cell-based; conditions: erythrocyte
Pseudomonas aeruginosa [2] = assay: Antimicrobial activity against Pseudomonas aeruginosa PAO1 assessed as reduction in bacterial growth incubated for 48 hrs by microdilution susceptibility test; assay type: functional
Escherichia coli [3] = assay: Antimicrobial activity against Escherichia coli ATCC 25922 assessed as reduction in bacterial growth incubated for 48 hrs by microdilution susceptibility test; assay type: functional
[4] = tested on: Corynebacterium glutamicum; assay: Antimicrobial activity against Corynebacterium glutamicum ATCC 13032 assessed as reduction in bacterial growth incubated for 48 hrs by microdilution susceptibility test; assay type: functional
Staphylococcus aureus [5] = assay: Antimicrobial activity against Staphylococcus aureus ATCC 9144 assessed as reduction in bacterial growth incubated for 48 hrs by microdilution susceptibility test; assay type: functional
MRC5 = assay: Cytotoxicity against human MRC5 cells assessed as reduction in cell viability incubated for 24 hrs by colorimetric tetrazolium assay; assay type: functional, cell-based; conditions: MRC5, 24 h
Staphylococcus aureus [6] = assay: Antimicrobial activity against extended spectrum-lactamase-carbapenemas producing Staphylococcus aureus N315 assessed as reduction in bacterial growth incubated for 48 hrs by microdilution method; assay type: functional
Staphylococcus aureus [7] = assay: Antimicrobial activity against extended spectrum-lactamase-carbapenemas producing Staphylococcus aureus NCTC 10442 assessed as reduction in bacterial growth incubated for 48 hrs by microdilution method; assay type: functional
Staphylococcus aureus [8] = assay: Antimicrobial activity against extended spectrum-lactamase-carbapenemas producing Staphylococcus aureus strain 85/2082 assessed as reduction in bacterial growth incubated for 48 hrs by microdilution method; assay type: functional
Staphylococcus aureus [9] = assay: Antimicrobial activity against extended spectrum-lactamase-carbapenemas producing Staphylococcus aureus strain WIS assessed as reduction in bacterial growth incubated for 48 hrs by microdilution method; assay type: functional
Staphylococcus aureus [10] = assay: Antimicrobial activity against extended spectrum-lactamase-carbapenemas producing Staphylococcus aureus strain IHT 99040 assessed as reduction in bacterial growth incubated for 48 hrs by microdilution method; assay type: functional
Enterococcus faecium [11] = assay: Antimicrobial activity against extended spectrum-lactamase-carbapenemas producing Enterococcus faecium strain 50673722 assessed as reduction in bacterial growth incubated for 48 hrs by microdilution method; assay type: functional
Enterococcus faecium [12] = assay: Antimicrobial activity against extended spectrum-lactamase-carbapenemas producing Enterococcus faecium strain 50901530 assessed as reduction in bacterial growth incubated for 48 hrs by microdilution method; assay type: functional
Enterococcus faecium [13] = assay: Antimicrobial activity against extended spectrum-lactamase-carbapenemas producing Enterococcus faecium strain K36-18 assessed as reduction in bacterial growth incubated for 48 hrs by microdilution method; assay type: functional
Enterococcus faecium [14] = assay: Antimicrobial activity against extended spectrum-lactamase-carbapenemas producing Enterococcus faecium strain 50758899 assessed as reduction in bacterial growth incubated for 48 hrs by microdilution method; assay type: functional
Enterococcus faecium [15] = assay: Antimicrobial activity against extended spectrum-lactamase-carbapenemas producing Enterococcus faecium strain TUH.50-22 assessed as reduction in bacterial growth incubated for 48 hrs by microdilution method; assay type: functional
Escherichia coli [16] = assay: Antimicrobial activity against oxacillinase-producing Escherichia coli 50579417 assessed as reduction in bacterial growth incubated for 48 hrs by microdilution method; assay type: functional
Escherichia coli [17] = assay: Antimicrobial activity against verona integron-encoded metallo-beta-lactamase-29-producing Escherichia coli 50639799 assessed as reduction in bacterial growth incubated for 48 hrs by microdilution method; assay type: functional
Escherichia coli [18] = assay: Antimicrobial activity against New Delhi metallo-beta lactamase-1 producing Escherichia coli 50676002 assessed as reduction in bacterial growth incubated for 48 hrs by microdilution method; assay type: functional
Escherichia coli [19] = assay: Antimicrobial activity against New Delhi metallo-beta lactamase-1 producing Escherichia coli 50739822 assessed as reduction in bacterial growth incubated for 48 hrs by microdilution method; assay type: functional
Escherichia coli [20] = assay: Antimicrobial activity against imipenem-type carbapenemase-26 producing Escherichia coli 50857972 assessed as reduction in bacterial growth incubated for 48 hrs by microdilution method; assay type: functional
Pseudomonas aeruginosa [21] = assay: Antimicrobial activity against verona integron-encoded metallo-beta-lactamase-2 producing Pseudomonas aeruginosa K34-7 assessed as reduction in bacterial growth incubated for 48 hrs by microdilution method; assay type: functional
Pseudomonas aeruginosa [22] = assay: Antimicrobial activity against verona integron-encoded metallo-beta-lactamase-4 producing Pseudomonas aeruginosa K34-73 assessed as reduction in bacterial growth incubated for 48 hrs by microdilution method; assay type: functional
Pseudomonas aeruginosa [23] = assay: Antimicrobial activity against imipenem-type carbapenemase-14 producing Pseudomonas aeruginosa K44-24 assessed as reduction in bacterial growth incubated for 48 hrs by microdilution method; assay type: functional
Pseudomonas aeruginosa [24] = assay: Antimicrobial activity against New Delhi metallo-beta lactamase-1 producing Pseudomonas aeruginosa 50692172 assessed as reduction in bacterial growth incubated for 48 hrs by microdilution method; assay type: functional
Pseudomonas aeruginosa [25] = assay: Antimicrobial activity against verona integron-encoded metallo-beta-lactamase producing Pseudomonas aeruginosa 50692520 assessed as reduction in bacterial growth incubated for 48 hrs by microdilution method; assay type: functional
[26] = Antimicrobial activity against carbapenemase producing Klebsiella pneumoniae K47-25 assessed as reduction in bacterial growth incubated for 48 hrs by microdilution method; assay type: functional
[27] = Antimicrobial activity against New Delhi metallo-beta lactamase-1 Klebsiella pneumoniae K66-45 assessed as reduction in bacterial growth incubated for 48 hrs by microdilution method; assay type: functional
[28] = Antimicrobial activity against New Delhi metallo-beta lactamase-1 and oxacillinase -181 producing Klebsiella pneumoniae 50531633 assessed as reduction in bacterial growth incubated for 48 hrs by microdilution method; assay type: functional
[29] = Antimicrobial activity against oxacillinase-245 producing Klebsiella pneumoniae 50625602 assessed as reduction in bacterial growth incubated for 48 hrs by microdilution method; assay type: functional
[30] = Antimicrobial activity against verona integron-encoded metallo-beta-lactamase -1 producing Klebsiella pneumoniae 50667959 assessed as reduction in bacterial growth incubated for 48 hrs by microdilution method; assay type: functional
Acinetobacter baumannii [31] = assay: Antimicrobial activity against oxacillinase-58 producing Acinetobacter baumannii K12-21 assessed as reduction in bacterial growth incubated for 48 hrs by microdilution method; assay type: functional
Acinetobacter baumannii [32] = assay: Antimicrobial activity against oxacillinase-23 producing Acinetobacter baumannii K44-35 assessed as reduction in bacterial growth incubated for 48 hrs by microdilution method; assay type: functional
Acinetobacter baumannii [33] = assay: Antimicrobial activity against oxacillinase-23 producing Acinetobacter baumannii K47-42 assessed as reduction in bacterial growth incubated for 48 hrs by microdilution method; assay type: functional
Acinetobacter baumannii [34] = assay: Antimicrobial activity against oxacillinase-24 producing Acinetobacter baumannii K55-13 assessed as reduction in bacterial growth incubated for 48 hrs by microdilution method; assay type: functional
Acinetobacter baumannii [35] = assay: Antimicrobial activity against oxacillinase-23 producing Acinetobacter baumannii K63-58 assessed as reduction in bacterial growth incubated for 48 hrs by microdilution method; assay type: functional

| Structure (SMILES) | IC50 (HepG2) [µg/mL] | EC50 [1] [µg/mL] | MIC (Pseudomonas aeruginosa [2]) [µg/mL] | MIC (Escherichia coli [3]) [µg/mL] | MIC [4] [µg/mL] | MIC (Staphylococcus aureus [5]) [µg/mL] | IC50 (MRC5) [µg/mL] | MIC (Staphylococcus aureus [6]) [µg/mL] | MIC (Staphylococcus aureus [7]) [µg/mL] | MIC (Staphylococcus aureus [8]) [µg/mL] | MIC (Staphylococcus aureus [9]) [µg/mL] | MIC (Staphylococcus aureus [10]) [µg/mL] | MIC (Enterococcus faecium [11]) [µg/mL] | MIC (Enterococcus faecium [12]) [µg/mL] | MIC (Enterococcus faecium [13]) [µg/mL] | MIC (Enterococcus faecium [14]) [µg/mL] | MIC (Enterococcus faecium [15]) [µg/mL] | MIC (Escherichia coli [16]) [µg/mL] | MIC (Escherichia coli [17]) [µg/mL] | MIC (Escherichia coli [18]) [µg/mL] | also measured |
| --- | --- | --- | --- | --- | --- | --- | --- | --- | --- | --- | --- | --- | --- | --- | --- | --- | --- | --- | --- | --- | --- |
| CC(C)(C)c1ccc(CC2(Cc3ccc(C(C)(C)C)cc3)C(=O)N(CCCCNC(=N)N)C(=O)N(CCCCNC(=N)N)C2=O)cc1.O=C(O)C(F)(F)F.O=C(O)C(F)(F)F | 28 | 77 | 4 | 2 | < 0.13 | 1 | 14 | 2 | 2 | 2 | 2 | 2 | 2 | 4 | 2 | 2 | 2 | 4 | 4 | 4 | MIC (Escherichia coli [19]): 4 µg/mL; MIC (Escherichia coli [20]): 4 µg/mL; MIC (Pseudomonas aeruginosa [21]): 16 µg/mL; MIC (Pseudomonas aeruginosa [22]): 8 µg/mL; MIC (Pseudomonas aeruginosa [23]): 16 µg/mL; MIC (Pseudomonas aeruginosa [24]): 16 µg/mL; MIC (Pseudomonas aeruginosa [25]): 16 µg/mL; MIC [26]: 4 µg/mL; MIC [27]: 4 µg/mL; MIC [28]: 4 µg/mL; MIC [29]: 4 µg/mL; MIC [30]: 16 µg/mL; MIC (Acinetobacter baumannii [31]): 4 µg/mL; MIC (Acinetobacter baumannii [32]): 8 µg/mL; MIC (Acinetobacter baumannii [33]): 8 µg/mL; MIC (Acinetobacter baumannii [34]): 8 µg/mL; MIC (Acinetobacter baumannii [35]): 4 µg/mL |
| N=C(N)NCCCCN1C(=O)N(CCCCNC(=N)N)C(=O)C(Cc2ccc(F)c3ccccc23)(Cc2ccc(F)c3ccccc23)C1=O.O=C(O)C(F)(F)F.O=C(O)C(F)(F)F | 56 | 90 | 4 | 1 | 0.25 | 1 | 23 | 2 | 2 | 2 | 2 | 2 | 4 | 4 | 4 | 4 | 4 | 8 | 4 | 4 | MIC (Escherichia coli [19]): 8 µg/mL; MIC (Escherichia coli [20]): 4 µg/mL; MIC (Pseudomonas aeruginosa [21]): 16 µg/mL; MIC (Pseudomonas aeruginosa [22]): 8 µg/mL; MIC (Pseudomonas aeruginosa [23]): 16 µg/mL; MIC (Pseudomonas aeruginosa [24]): 16 µg/mL; MIC (Pseudomonas aeruginosa [25]): 16 µg/mL; MIC [26]: 8 µg/mL; MIC [27]: 4 µg/mL; MIC [28]: 8 µg/mL; MIC [29]: 16 µg/mL; MIC [30]: 4 µg/mL; MIC (Acinetobacter baumannii [31]): 8 µg/mL; MIC (Acinetobacter baumannii [32]): 8 µg/mL; MIC (Acinetobacter baumannii [33]): 8 µg/mL; MIC (Acinetobacter baumannii [34]): 8 µg/mL; MIC (Acinetobacter baumannii [35]): 8 µg/mL |
| CC(C)(C)c1cc(CC2(Cc3cc(C(C)(C)C)cc(C(C)(C)C)c3)C(=O)N(CCCCN)C(=O)N(CCCCN)C2=O)cc(C(C)(C)C)c1.O=C(O)C(F)(F)F.O=C(O)C(F)(F)F | 2 | < 5 | 4 | 2 | 0.25 | 1 | 1 | 2 | 2 | 2 | 2 | 2 | 2 | 2 | 2 | 2 | 2 | 4 | 4 | 8 | MIC (Escherichia coli [19]): 4 µg/mL; MIC (Escherichia coli [20]): 4 µg/mL; MIC (Pseudomonas aeruginosa [21]): 8 µg/mL; MIC (Pseudomonas aeruginosa [22]): 16 µg/mL; MIC (Pseudomonas aeruginosa [23]): 8 µg/mL; MIC (Pseudomonas aeruginosa [24]): 8 µg/mL; MIC (Pseudomonas aeruginosa [25]): 8 µg/mL; MIC [26]: 16 µg/mL; MIC [27]: 8 µg/mL; MIC [28]: 8 µg/mL; MIC [29]: 8 µg/mL; MIC [30]: 8 µg/mL; MIC (Acinetobacter baumannii [31]): 4 µg/mL; MIC (Acinetobacter baumannii [32]): 4 µg/mL; MIC (Acinetobacter baumannii [33]): 4 µg/mL; MIC (Acinetobacter baumannii [34]): 4 µg/mL; MIC (Acinetobacter baumannii [35]): 4 µg/mL |
